Results from US10119168B2, “Methods for the treatment of kidney fibrosis” (priority 2014, dated 2018).

Test system: mouse kidney
Test: RNA-seq of kidney gene expression over time in FA nephropathy progression (Table 1)
Assay type: in vivo
Text: Identification of Candidate Genes for Biomarkers of Kidney Fibrosis Through RNA-Seq. […] To select genes that are indicative of fibrosis candidates were considered from this later group that had robust upregulation (>5-fold with >100 read counts at peak) over time as fibrosis progresses. Another important criteria was the location of the protein product of the gene, either in extracellular matrix or transmembrane, to increase the chance of detecting it in the urine and use it as a biomarker(11).
(§1) RNA samples (n=3 mice/time point) were sequenced at the Bioplymers Facility at the Harvard Medical School. Libraries were prepared from 10 ng total RNA per sample using the IntegenX Apollo 324 system and NuGEN SPIA reagents. Libraries were multiplexed in groups of three per lane of a flowcell and 50 cycle, paired-end sequencing was performed on an Illumina HiSeq2000 instrument. Illumina sequence quality was surveyed with FastQC (available on the world wide web at bioinformatics.babraham.ac.uk/projects/fastqc/) to ensure suitability of library generation and sequencing for further analysis. Adapters and lower quality bases were trimmed with Cutadapt (available on the world wide web at code.google.com/p/cutadapt/), using a Phred quality cutoff of 20, and reassessed with FastQC. Trimmed reads were aligned to the Ensembl NCBIM37 Mus musculus genome build with TopHat2. Aligned reads were summarized at the gene level against the Illumina iGenomes (available on the world wide web at tophat.cbcb.umd.edu/igenomes.html) NCBIM37 Mus musculus gene annotations using HTSeq (available on the world wide web at huber.embl.de/users/anders/HTSeq/doc/overview.html). […] The full dataset is available in the NCBI GEO database with the accession number GSE65267. Raw data is accessible on the world wide web at ncbi.nlm.nih.gov/geo/query/acc.cgi?acc=GSE65267.
Mice were sacrificed at 1, 2, 3, 7 and 14 days following administration. […] All mice were sacrificed at 14 days.
as §1, with “The quantity and quality of mRNA” for “RNA samples (n=3 mice/time point)”, “assayed on an Agilent 2200 TapeStation instrument and by SYBR qPCR assay.” for “sequenced at the Bioplymers Facility at the Harvard Medical School.”, “(https://code.google.com/p/cutadapt/),” for “(available on the world wide web at code.google.com/p/cutadapt/),”

Nc1nc2ncc(CNc3ccc(C(=O)N[C@@H](CCC(=O)O)C(=O)O)cc3)nc2c(=O)[nH]1 [FA, folic acid]
7SK RNA mean fold change from normal (Day 1): 0.04 fold | 2310042D19Rik mean fold change from normal (Day 1): 0.09 fold | 4930533I22Rik mean fold change from normal (Day 1): 0.11 fold | 4933417A18Rik mean fold change from normal (Day 1): 0.04 fold | 8430408G22Rik mean fold change from normal (Day 1): 0.09 fold | 9030619P08Rik mean fold change from normal (Day 1): 0.01 fold | Slc2a5 mean fold change from normal (Day 1): 0.07 fold | Slc4a1 mean fold change from normal (Day 1): 0.11 fold | Slc5a4a mean fold change from normal (Day 1): 0.02 fold | Slc5a12 mean fold change from normal (Day 1): 0.06 fold | Slc6a12 mean fold change from normal (Day 1): 0.02 fold | Slc7a13 mean fold change from normal (Day 1): 0.02 fold | Slc28a1 mean fold change from normal (Day 1): 0.02 fold | Slc34a1 mean fold change from normal (Day 1): 0.05 fold | Slc34a2 mean fold change from normal (Day 1): 11.81 fold | Slc34a3 mean fold change from normal (Day 1): 0.05 fold | Slc46a3 mean fold change from normal (Day 1): 0.11 fold | Slco1a1 mean fold change from normal (Day 1): 0.18 fold | Smoc2 mean fold change from normal (Day 1): 0.06 fold | Smpdl3b mean fold change from normal (Day 1): 222.02 fold | Snx31 mean fold change from normal (Day 1): 0.06 fold | Socs1 mean fold change from normal (Day 1): 77.54 fold | Sox4 mean fold change from normal (Day 1): 12.86 fold | Sox9 mean fold change from normal (Day 1): 24.10 fold | Spaca7 mean fold change from normal (Day 1): 27.30 fold | Spink6 mean fold change from normal (Day 1): 46.74 fold | Spp1 mean fold change from normal (Day 1): 113.22 fold | Spred3 mean fold change from normal (Day 1): 6.01 fold | Spsb1 mean fold change from normal (Day 1): 11.68 fold | Spt1c3 mean fold change from normal (Day 1): 0.07 fold | St8sia2 mean fold change from normal (Day 1): 3.07 fold | Stil mean fold change from normal (Day 1): 13.84 fold | Stk32a mean fold change from normal (Day 1): 10.38 fold | Stra6 mean fold change from normal (Day 1): 1.19 fold | Susd2 mean fold change from normal (Day 1): 0.18 fold | Sycn mean fold change from normal (Day 1): 0.07 fold | Synpr mean fold change from normal (Day 1): 0.23 fold | Sytl2 mean fold change from normal (Day 1): 3.75 fold | Tagln2 mean fold change from normal (Day 1): 8.92 fold | Tbx10 mean fold change from normal (Day 1): 0.06 fold | Timd2 mean fold change from normal (Day 1): 7.27 fold | Timp1 mean fold change from normal (Day 1): 175.24 fold | Tlr2 mean fold change from normal (Day 1): 6.43 fold | Tmem25 mean fold change from normal (Day 1): 0.11 fold | Tmem26 mean fold change from normal (Day 1): 0.10 fold | Tmem207 mean fold change from normal (Day 1): 0.01 fold | Tmsb10 mean fold change from normal (Day 1): 19.04 fold | Tnc mean fold change from normal (Day 1): 13.27 fold | Tnfaip3 mean fold change from normal (Day 1): 1.97 fold | Tnfrsf23 mean fold change from normal (Day 1): 18.16 fold | Top2a mean fold change from normal (Day 1): 5.38 fold | Tpx2 mean fold change from normal (Day 1): 3.87 fold | Tril mean fold change from normal (Day 1): 0.07 fold | Tsc22d1 mean fold change from normal (Day 1): 8.11 fold | Ttc36 mean fold change from normal (Day 1): 0.04 fold | Ttr mean fold change from normal (Day 1): 0.05 fold | Tyrobp mean fold change from normal (Day 1): 1.26 fold | Ugt3a1 mean fold change from normal (Day 1): 0.18 fold | Uhrf1 mean fold change from normal (Day 1): 16.90 fold | Upp2 mean fold change from normal (Day 1): 0.25 fold | Vcam1 mean fold change from normal (Day 1): 13.66 fold | Vill mean fold change from normal (Day 1): 0.09 fold | Vmn1r18 mean fold change from normal (Day 1): 0.02 fold | Vmn1r19 mean fold change from normal (Day 1): 0.03 fold | Vmn1r20 mean fold change from normal (Day 1): 0.02 fold | Vmn1r-ps11 mean fold change from normal (Day 1): 0.02 fold | Vstm2a mean fold change from normal (Day 1): 0.04 fold | Vtcn1 mean fold change from normal (Day 1): 64.93 fold | Vwce mean fold change from normal (Day 1): 0.06 fold | Wfdc15b mean fold change from normal (Day 1): 0.02 fold | Ybx2 mean fold change from normal (Day 1): 0.08 fold | 7SK RNA mean fold change from normal (Day 2): 0.04 fold | 2310042D19Rik mean fold change from normal (Day 2): 0.08 fold | 4930533I22Rik mean fold change from normal (Day 2): 0.09 fold | 4933417A18Rik mean fold change from normal (Day 2): 0.07 fold | 8430408G22Rik mean fold change from normal (Day 2): 0.23 fold | 9030619P08Rik mean fold change from normal (Day 2): 0.05 fold | Slc2a5 mean fold change from normal (Day 2): 0.09 fold | Slc4a1 mean fold change from normal (Day 2): 0.09 fold | Slc5a4a mean fold change from normal (Day 2): 0.37 fold | Slc5a12 mean fold change from normal (Day 2): 0.34 fold | Slc6a12 mean fold change from normal (Day 2): 0.13 fold | Slc7a13 mean fold change from normal (Day 2): 0.02 fold | Slc28a1 mean fold change from normal (Day 2): 0.19 fold | Slc34a1 mean fold change from normal (Day 2): 0.11 fold | Slc34a2 mean fold change from normal (Day 2): 16.20 fold | Slc34a3 mean fold change from normal (Day 2): 0.05 fold | Slc46a3 mean fold change from normal (Day 2): 0.36 fold | Slco1a1 mean fold change from normal (Day 2): 0.16 fold | Smoc2 mean fold change from normal (Day 2): 0.06 fold | Smpdl3b mean fold change from normal (Day 2): 124.22 fold | Snx31 mean fold change from normal (Day 2): 0.05 fold | Socs1 mean fold change from normal (Day 2): 53.23 fold | Sox4 mean fold change from normal (Day 2): 13.93 fold | Sox9 mean fold change from normal (Day 2): 49.89 fold | Spaca7 mean fold change from normal (Day 2): 74.80 fold | Spink6 mean fold change from normal (Day 2): 13.93 fold | Spp1 mean fold change from normal (Day 2): 174.85 fold | Spred3 mean fold change from normal (Day 2): 11.03 fold | Spsb1 mean fold change from normal (Day 2): 13.04 fold | Spt1c3 mean fold change from normal (Day 2): 0.11 fold | St8sia2 mean fold change from normal (Day 2): 2.10 fold | Stil mean fold change from normal (Day 2): 32.74 fold | Stk32a mean fold change from normal (Day 2): 7.59 fold | Stra6 mean fold change from normal (Day 2): 1.95 fold | Susd2 mean fold change from normal (Day 2): 0.07 fold | Sycn mean fold change from normal (Day 2): 0.07 fold | Synpr mean fold change from normal (Day 2): 0.02 fold | Sytl2 mean fold change from normal (Day 2): 5.53 fold | Tagln2 mean fold change from normal (Day 2): 6.40 fold | Tbx10 mean fold change from normal (Day 2): 0.10 fold | Timd2 mean fold change from normal (Day 2): 2.97 fold | Timp1 mean fold change from normal (Day 2): 194.76 fold | Tlr2 mean fold change from normal (Day 2): 12.76 fold | Tmem25 mean fold change from normal (Day 2): 0.34 fold | Tmem26 mean fold change from normal (Day 2): 0.07 fold | Tmem207 mean fold change from normal (Day 2): 0.02 fold | Tmsb10 mean fold change from normal (Day 2): 18.72 fold | Tnc mean fold change from normal (Day 2): 9.63 fold | Tnfaip3 mean fold change from normal (Day 2): 3.85 fold | Tnfrsf23 mean fold change from normal (Day 2): 7.62 fold | Top2a mean fold change from normal (Day 2): 15.75 fold | Tpx2 mean fold change from normal (Day 2): 10.97 fold | Tril mean fold change from normal (Day 2): 0.43 fold | Tsc22d1 mean fold change from normal (Day 2): 6.92 fold | Ttc36 mean fold change from normal (Day 2): 0.10 fold | Ttr mean fold change from normal (Day 2): 0.04 fold | Tyrobp mean fold change from normal (Day 2): 1.65 fold | Ugt3a1 mean fold change from normal (Day 2): 0.07 fold | Uhrf1 mean fold change from normal (Day 2): 31.75 fold | Upp2 mean fold change from normal (Day 2): 0.11 fold | Vcam1 mean fold change from normal (Day 2): 30.80 fold | Vill mean fold change from normal (Day 2): 0.28 fold | Vmn1r18 mean fold change from normal (Day 2): 0.01 fold | Vmn1r19 mean fold change from normal (Day 2): 0.02 fold | Vmn1r20 mean fold change from normal (Day 2): 0.34 fold | Vmn1r-ps11 mean fold change from normal (Day 2): 0.03 fold | Vstm2a mean fold change from normal (Day 2): 0.05 fold | Vtcn1 mean fold change from normal (Day 2): 44.16 fold | Vwce mean fold change from normal (Day 2): 0.08 fold | Wfdc15b mean fold change from normal (Day 2): 0.05 fold | Ybx2 mean fold change from normal (Day 2): 0.12 fold | 7SK RNA mean fold change from normal (Day 3): 0.08 fold | 2310042D19Rik mean fold change from normal (Day 3): 0.47 fold | 4930533I22Rik mean fold change from normal (Day 3): 0.22 fold | 4933417A18Rik mean fold change from normal (Day 3): 0.49 fold | 8430408G22Rik mean fold change from normal (Day 3): 0.34 fold | 9030619P08Rik mean fold change from normal (Day 3): 0.02 fold | Slc2a5 mean fold change from normal (Day 3): 0.21 fold | Slc4a1 mean fold change from normal (Day 3): 0.18 fold | Slc5a4a mean fold change from normal (Day 3): 0.51 fold | Slc5a12 mean fold change from normal (Day 3): 0.38 fold | Slc6a12 mean fold change from normal (Day 3): 0.26 fold | Slc7a13 mean fold change from normal (Day 3): 0.11 fold | Slc28a1 mean fold change from normal (Day 3): 0.18 fold | Slc34a1 mean fold change from normal (Day 3): 0.33 fold | Slc34a2 mean fold change from normal (Day 3): 7.59 fold | Slc34a3 mean fold change from normal (Day 3): 0.09 fold | Slc46a3 mean fold change from normal (Day 3): 0.57 fold | Slco1a1 mean fold change from normal (Day 3): 0.19 fold | Smoc2 mean fold change from normal (Day 3): 1.83 fold | Smpdl3b mean fold change from normal (Day 3): 111.13 fold | Snx31 mean fold change from normal (Day 3): 0.07 fold | Socs1 mean fold change from normal (Day 3): 43.48 fold | Sox4 mean fold change from normal (Day 3): 11.69 fold | Sox9 mean fold change from normal (Day 3): 52.43 fold | Spaca7 mean fold change from normal (Day 3): 18.32 fold | Spink6 mean fold change from normal (Day 3): 9.16 fold | Spp1 mean fold change from normal (Day 3): 63.01 fold | Spred3 mean fold change from normal (Day 3): 8.99 fold | Spsb1 mean fold change from normal (Day 3): 4.64 fold | Spt1c3 mean fold change from normal (Day 3): 1.02 fold | St8sia2 mean fold change from normal (Day 3): 10.17 fold | Stil mean fold change from normal (Day 3): 10.68 fold | Stk32a mean fold change from normal (Day 3): 5.33 fold | Stra6 mean fold change from normal (Day 3): 8.56 fold | Susd2 mean fold change from normal (Day 3): 0.32 fold
